Patent publication US12528814B2, “Bifunctional degraders of interleukin-1 receptor-associated kinases and therapeutic use thereof” (NURIX THERAPEUTICS, INC., priority 2020, dated 2026)
Like-named read-outs stand apart in the source and are kept apart here.

What was measured:
IRAK4 [1] = biological target: T1, IRAK4 (Homo sapiens (Human), UniProt Q9NWZ3); experiment: IRAK4 Biochemical HTRF Kinase Assay; conditions: read-out: IRAK4 HTRF biochemical: IC50
Outline: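 IC50 values derive from non-linear regression of sixteen concentrations in duplicate. Kinase reaction ran 90 min at ambient temperature after adding 5 μM STK-S1 substrate, 10 mM ATP and 10 mM MgCl2 (reaction-solution levels, pre-dilution to 10 μl); phospho-peptide detected by HTRF after 60 min.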
Target sequence in this assay (Q9NWZ3 whole entry, species assumed): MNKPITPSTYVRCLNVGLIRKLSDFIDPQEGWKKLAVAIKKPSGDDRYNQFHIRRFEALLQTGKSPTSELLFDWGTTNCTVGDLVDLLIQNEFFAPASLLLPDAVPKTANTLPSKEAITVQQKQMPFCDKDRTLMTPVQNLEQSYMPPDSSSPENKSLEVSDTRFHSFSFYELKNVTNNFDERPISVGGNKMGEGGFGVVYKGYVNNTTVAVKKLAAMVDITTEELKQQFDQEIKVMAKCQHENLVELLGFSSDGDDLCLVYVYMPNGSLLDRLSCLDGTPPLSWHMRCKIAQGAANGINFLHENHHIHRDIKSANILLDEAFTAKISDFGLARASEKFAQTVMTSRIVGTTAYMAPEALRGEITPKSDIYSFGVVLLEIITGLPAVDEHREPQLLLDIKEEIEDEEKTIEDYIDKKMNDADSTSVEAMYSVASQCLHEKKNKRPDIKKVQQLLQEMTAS

IRAK4 [2] = biological target: T1, IRAK4; experiment: IRAK4 Degradation HiBiT Assay; conditions: HiBiT-tagged Jurkat cells, 4 hrs; for Dmax: Jurkat; for DC50: read-out: Cellular IRAK4 HiBiT: DC50
Target sequence in this assay (Q9NWZ3 whole entry): as the sequence (Q9NWZ3 whole entry, species assumed) above

[3] = read-out: Cellular IRAK4 HiBiT: Dmax, Table 4
[4] = read-out: Cellular IRAK4 HiBiT: Dmax, Table 5, multiple runs

Compound	IC50 (IRAK4 [1]; Table 4)	IC50 (IRAK4 [1]; Table 5, multiple runs)	Dmax (IRAK4 [2]; [3])	Dmax (IRAK4 [2]; [4])	DC50 (IRAK4 [2]; Table 4)	DC50 (IRAK4 [2]; Table 5, multiple runs)
CC(C)Nc1cc(-c2ccc3cc(C#N)cnn23)ncc1-c1nnc(N2CCN(C3CCN(Cc4ccc5c(c4)C(=O)N(C4CCC(=O)NC4=O)C5=O)CC3)CC2)s1 (stereo not drawn) [Example 18, 7-(5-(5-(4-(1-((2-(2,6-dioxopiperidin-3-yl)-1,3-dioxoisoindolin-5-yl)methyl)piperidin-4-yl)piperazin-1-yl)-1,3,4-thiadiazol-2-yl)-4-(isopropylamino)pyridin-2-yl)pyrrolo[1,2-b]pyridazine-3-carbonitrile]	1.9 nM	1.9 nM	88%	87%	123 nM	113 nM
Cc1ncsc1-c1ccc([C@H](C)NC(=O)[C@@H]2C[C@@H](O)CN2C(=O)[C@@H](NC(=O)CCCCCC(=O)N2CCN(c3nnc(-c4cnc(-c5ccc6cc(C#N)cnn56)cc4NC(C)C)s3)CC2)C(C)(C)C)cc1 [Example 37, (2S,4R)-1-((S)-2-(7-(4-(5-(6-(3-cyanopyrrolo[1,2-b]pyridazin-7-yl)-4-(isopropylamino)pyridin-3-yl)-1,3,4-thiadiazol-2-yl)piperazin-1-yl)-7-oxoheptanamido)-3,3-dimethylbutanoyl)-4-hydroxy-N—((S)-1-(4-(4-methylthiazol-5-yl)phenyl)ethyl)pyrrolidine-2-carboxamide]	6 nM	6 nM	98%	98%	240 nM	220 nM
CC(C)Nc1cc(-c2ccc3cc(C#N)cnn23)ncc1-c1nnc(N2CCN(CC3CCN(c4ccc(C(=O)NC5CCC(=O)NC5=O)nc4)CC3)CC2)s1 (stereo not drawn) [Example 33, 5-(4-((4-(5-(6-(3-cyanopyrrolo[1,2-b]pyridazin-7-yl)-4-(isopropylamino)pyridin-3-yl)-1,3,4-thiadiazol-2-yl)piperazin-1-yl)methyl)piperidin-1-yl)-N-(2,6-dioxopiperidin-3-yl)picolinamide]	2.1 nM	2.1 nM	14%	–	> 10000 nM	> 9980 nM
Cc1ncsc1-c1ccc(CNC(=O)[C@@H]2C[C@@H](O)CN2C(=O)C(NC(=O)[C@H]2CC[C@H](CN3CCN(c4nnc(-c5cnc(-c6ccc7cc(C#N)cnn67)cc5NC(C)C)s4)CC3)CC2)C(C)(C)C)cc1 (stereo partly drawn) [Example 46, (2S,4R)-1-((S)-2-((1r,4S)-4-((4-(5-(6-(3-cyanopyrrolo[1,2-b]pyridazin-7-yl)-4-(isopropylamino)pyridin-3-yl)-1,3,4-thiadiazol-2-yl)piperazin-1-yl)methyl)cyclohexane-1-carboxamido)-3,3-dimethylbutanoyl)-4-hydroxy-N-(4-(4-methylthiazol-5-yl)benzyl)pyrrolidine-2-carboxamide]	15.4 nM	15.4 nM	78%	73%	1570 nM	1240 nM
CNc1cc(-c2ccc3cc(C#N)cnn23)ncc1-c1nnc(C2CCC(NC(=O)[C@H]3C[C@H]3C(=O)N[C@H](C(=O)N3C[C@H](O)C[C@H]3C(=O)N[C@@H](C)c3ccc(-c4scnc4C)cc3)C(C)(C)C)CC2)s1 (mixture of isomers) [Example 147, (1RS,2SR)—N1-((1r,4R)-4-(5-(6-(3-cyanopyrrolo[1,2-b]pyridazin-7-yl)-4-(methylamino)pyridin-3-yl)-1,3,4-thiadiazol-2-yl)cyclohexyl)-N2—((S)-1-((2S,4R)-4-hydroxy-2-(((S)-1-(4-(4-methylthiazol-5-yl)phenyl)ethyl)carbamoyl)pyrrolidin-1-yl)-3,3-dimethyl-1-oxobutan-2-yl)cyclopropane-1,2-dicarboxamide]	–	1.5 nM	–	80%	–	508 nM
CNc1cc(-c2ccc3cc(C#N)cnn23)ncc1-c1nnc(N2CCCC3(CN(C(=O)c4ccc5c(c4)C(=O)N(C4CCC(=O)NC4=O)C5=O)C3)C2)s1 (stereo not drawn) [Example 124, 7-(5-(5-(2-(2-(2,6-dioxopiperidin-3-yl)-1,3-dioxoisoindoline-5-carbonyl)-2,6-diazaspiro[3.5]nonan-6-yl)-1,3,4-thiadiazol-2-yl)-4-(methylamino)pyridin-2-yl)pyrrolo[1,2-b]pyridazine-3-carbonitrile]	–	1.9 nM	–	–	–	> 9980 nM
CN[C@@H](C)C(=O)N[C@H](C(=O)N1C[C@@H](NC(=O)CCOCCC(=O)N2CCN(c3nnc(-c4cnc(-c5ccc6cc(C#N)cnn56)cc4NC(C)C)s3)CC2)C[C@H]1C(=O)N[C@@H]1CCCc2ccccc21)C1CCCCC1 [Example 54, (2S,4S)-4-(3-(3-(4-(5-(6-(3-cyanopyrrolo[1,2-b]pyridazin-7-yl)-4-(isopropylamino)pyridin-3-yl)-1,3,4-thiadiazol-2-yl)piperazin-1-yl)-3-oxopropoxy)propanamido)-1-((S)-2-cyclohexyl-2-((S)-2-(methylamino)propanamido)acetyl)-N—((R)-1,2,3,4-tetrahydronaphthalen-1-yl)pyrrolidine-2-carboxamide]	0.6 nM	0.6 nM	48%	48%	816 nM	794 nM

The remaining lines, values ahead:

IC50 (IRAK4 [1]; Table 4)	IC50 (IRAK4 [1]; Table 5, multiple runs)	Dmax (IRAK4 [2]; [3])	Dmax (IRAK4 [2]; [4])	DC50 (IRAK4 [2]; Table 4)	DC50 (IRAK4 [2]; Table 5, multiple runs)	Compound
–	0.9 nM	–	96%	–	71.4 nM	CNc1cc(-c2ccc3cc(C#N)cnn23)ncc1-c1nnc(N2CCC(C3CCN(C(=O)c4ccc5c(c4)C(=O)N(C4CCC(=O)NC4=O)C5=O)CC3)CC2)s1 (stereo not drawn) [Example 184, 7-(5-(5-(1′-(2-(2,6-dioxopiperidin-3-yl)-1,3-dioxoisoindoline-5-carbonyl)-[4,4′-bipiperidin]-1-yl)-1,3,4-thiadiazol-2-yl)-4-(methylamino)pyridin-2-yl)pyrrolo[1,2-b]pyridazine-3-carbonitrile]
–	0.6 nM	–	41%	–	6.94 nM	CNc1cc(-c2ccc3cc(C#N)cnn23)ncc1-c1nnc(N2CC3(CCN(C[C@@H]4CCN(c5ccc6c(c5)C(=O)N(C5CCC(=O)NC5=O)C6=O)C4)CC3)C2)s1 (stereo partly drawn) [Example 181, 7-(5-(5-(7-(((3S)-1-(2-(2,6-dioxopiperidin-3-yl)-1,3-dioxoisoindolin-5-yl)pyrrolidin-3-yl)methyl)-2,7-diazaspiro[3.5]nonan-2-yl)-1,3,4-thiadiazol-2-yl)-4-(methylamino)pyridin-2-yl)pyrrolo[1,2-b]pyridazine-3-carbonitrile]
–	0.5 nM	–	103%	–	29.3 nM	CNc1cc(-c2ccc3cc(C#N)cnn23)ncc1-c1nnc([C@H]2CC[C@H](N(C)CC3CCN(c4ccc5c(=O)n(C6CCC(=O)NC6=O)ccc5c4)CC3)CC2)s1 (stereo partly drawn) [Example 170, 7-(5-(5-((1r,4r)-4-(((1-(2-(2,6-dioxopiperidin-3-yl)-1-oxo-1,2-dihydroisoquinolin-6-yl)piperidin-4-yl)methyl)(methyl)amino)cyclohexyl)-1,3,4-thiadiazol-2-yl)-4-(methylamino)pyridin-2-yl)pyrrolo[1,2-b]pyridazine-3-carbonitrile]
–	0.9 nM	–	103%	–	64.1 nM	CNc1cc(-c2ccc3cc(C#N)cnn23)ncc1-c1nnc(C23CCC(NC(=O)C4CCN(c5ccc6c(c5)C(=O)N(C5CCC(=O)NC5=O)C6=O)CC4)(CC2)CC3)s1 (stereo not drawn) [Example 134, N-(4-(5-(6-(3-cyanopyrrolo[1,2-b]pyridazin-7-yl)-4-(methylamino)pyridin-3-yl)-1,3,4-thiadiazol-2-yl)bicyclo[2.2.2]octan-1-yl)-1-(2-(2,6-dioxopiperidin-3-yl)-1,3-dioxoisoindolin-5-yl)piperidine-4-carboxamide]
–	0.8 nM	–	111%	–	8.59 nM	CC(C)Nc1cc(-c2ccc3cc(C#N)cnn23)ncc1-c1nnc(N2CCN(C3CCN(C(=O)Cc4ccc5c(c4)CN(C4CCC(=O)NC4=O)C5=O)CC3)CC2)s1 (stereo not drawn) [Example 75, 7-(5-(5-(4-(1-(2-(2-(2,6-dioxopiperidin-3-yl)-1-oxoisoindolin-5-yl)acetyl)piperidin-4-yl)piperazin-1-yl)-1,3,4-thiadiazol-2-yl)-4-(isopropylamino)pyridin-2-yl)pyrrolo[1,2-b]pyridazine-3-carbonitrile]
0.95 nM	0.8 nM	109%	111%	5.1 nM	16.9 nM	CNc1cc(-c2ccc3cc(C#N)cnn23)ncc1-c1nnc([C@H]2CC[C@H](NC(=O)CN3CCN(c4ccc5c(c4)C(=O)N(C4CCC(=O)NC4=O)C5=O)CC3)CC2)s1 (stereo partly drawn) [Example 65, N-((1r,4r)-4-(5-(6-(3-cyanopyrrolo[1,2-b]pyridazin-7-yl)-4-(methylamino)pyridin-3-yl)-1,3,4-thiadiazol-2-yl)cyclohexyl)-2-(4-(2-(2,6-dioxopiperidin-3-yl)-1,3-dioxoisoindolin-5-yl)piperazin-1-yl)acetamide]
–	0.8 nM	–	–	–	> 9980 nM	CNc1cc(-c2ccc3cc(C#N)cnn23)ncc1-c1nnc(N2CCC(NC(=O)C3CCN(c4cccc5c4C(=O)N(C4CCC(=O)NC4=O)C5=O)CC3)CC2)s1 (stereo not drawn) [Example 90, N-(1-(5-(6-(3-cyanopyrrolo[1,2-b]pyridazin-7-yl)-4-(methylamino)pyridin-3-yl)-1,3,4-thiadiazol-2-yl)piperidin-4-yl)-1-(2-(2,6-dioxopiperidin-3-yl)-1,3-dioxoisoindolin-4-yl)piperidine-4-carboxamide]
